The record followed here is patent US12331056B2, “SHP2 phosphatase inhibitors and methods of use thereof” (Relay Therapeutics, Inc., priority 2018, dated 2025).

Where a name gives a salt, the structure may show the parent alone.

The target in the assay is T1, SHP2 (Homo sapiens, UniProt Q06124).
T1 sequence (Q06124 1-593): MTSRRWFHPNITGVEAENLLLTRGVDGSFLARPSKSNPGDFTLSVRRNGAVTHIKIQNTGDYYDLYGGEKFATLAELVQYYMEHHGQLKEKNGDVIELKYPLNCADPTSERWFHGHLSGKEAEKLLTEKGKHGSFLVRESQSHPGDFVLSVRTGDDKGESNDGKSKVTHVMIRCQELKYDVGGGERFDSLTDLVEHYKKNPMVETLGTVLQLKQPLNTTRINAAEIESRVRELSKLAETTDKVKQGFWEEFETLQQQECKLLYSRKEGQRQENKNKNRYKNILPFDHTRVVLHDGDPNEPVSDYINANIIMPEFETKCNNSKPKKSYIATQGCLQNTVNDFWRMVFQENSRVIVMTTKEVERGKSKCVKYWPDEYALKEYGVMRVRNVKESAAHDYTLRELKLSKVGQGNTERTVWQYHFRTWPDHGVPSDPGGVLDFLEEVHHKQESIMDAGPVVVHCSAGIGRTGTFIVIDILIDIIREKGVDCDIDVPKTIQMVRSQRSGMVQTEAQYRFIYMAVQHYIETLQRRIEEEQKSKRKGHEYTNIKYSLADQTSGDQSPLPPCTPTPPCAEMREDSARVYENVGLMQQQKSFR
Description: SHP2 allosteric inhibition assay (DiFMUP prompt fluorescence). It counts as biochemical. The note with it: 0.25 nM SHP2 activated with 0.5 μM peptide IRS1_pY1172(dPEG8)pY1222; substrate DiFMUP 100 μM.

Broadly, the IC50 is the concentration at which inhibition is half-maximal. A lower IC50 goes with higher potency. Compound `Cc1nc(N2CCC3(CC2)Cc2ccccc2[C@@H]3N)c(CO)nc1-c1cccc(Cl)c1Cl` (single isomer, unassigned) [Example 19] returned an IC50 of 50 to 1000 nM.
`N[C@H]1c2ccccc2CC12CCN(c1cnc3c(-c4ccnc(Cl)c4F)n[nH]c3n1)CC2` (single isomer, unassigned) [Example 66]: the IC50 lay within 50 to 1000 nM.
With `N#Cc1cccc2c1CC1(CCN(c3cnc4c(N5CCCc6ncccc65)n[nH]c4n3)CC1)[C@H]2N` (single isomer, unassigned) [Example 116] the figure was 1000 to 10000 nM; with `N[C@@H]1c2ccccc2C[C@]12CC[C@@H](c1cnc3c(N4CCCc5ncccc54)n[nH]c3n1)CC2` (single isomer, unassigned) [Example 191, (1r, 3′S, 4S)-4-[3-(1,2,3,4-tetrahydro-1,5-naphthyridin-1-yl)-1H-pyrazolo[3,4-b]pyrazin-6-yl]-1′,3′-dihydrospiro[cyclohexane-1,2′-inden]-3′-amine], 1000 to 10000 nM.
For `C[C@H](O)c1nc(Sc2ccnc(Cl)c2Cl)cnc1N1CCC2(CC1)Cc1ccccc1[C@H]2N` (single isomer, unassigned) [Example 260], the IC50 was > 10000 nM.
With `N[C@@H]1c2ccccc2C[C@]12CC[C@H](c1cnc(Sc3ccnc(Cl)c3Cl)cn1)CC2` (single isomer, unassigned) [Example 275, (1s, 3′S, 4R)-4-{5-[(2,3-dichloropyridin-4-yl)sulfanyl]pyrazin-2-yl}-1′,3′-dihydrospiro[cyclohexane-1,2′-inden]-3′-amine] the figure was 1000 to 10000 nM.
`NC1c2ccccc2CC12CCC(c1cnc(SCC3CC3)cn1)CC2` (single isomer, unassigned) [Example 284, (1s, 1′R, 4S)-4-(5-((cyclopropylmethyl)thio)pyrazin-2-yl)-1′,3′-dihydrospiro[cyclohexane-1,2′-inden]-1′-amine] yielded an IC50 of 50 to 1000 nM.
With `C[C@H](C(=O)N1CCC2(CC1)Cc1ccccc1[C@H]2N)c1ccc(F)cc1` (single isomer, unassigned) [Example 290] the figure was < 50 nM.
With `Nc1nccc(Sc2ncc(N3CCC4(CC3)Cc3ccccc3[C@H]4N)cn2)c1Cl` [Example 63] the figure was 50 to 1000 nM; with `Cn1cnc2c(N3CCC4(CC3)Cc3ccccc3[C@H]4N)nccc21` [Example 184], 50 to 1000 nM.
As for `N[C@@H]1c2ccccc2C[C@@]12C[C@H]1CC[C@@H](C2)N1c1cnc2c(N3CCCc4ncccc43)n[nH]c2n1` [Example 227], the concentration for half-maximal inhibition (IC50) was > 10000 nM.
With `Nc1nccc(Sc2cnc(N3[C@@H]4CC[C@H]3C[C@]3(Cc5ccccc5[C@H]3N)C4)cn2)c1Cl` [Example 231] the figure was > 10000 nM.
`Nc1nccc(Sc2cnc(N3[C@@H]4CC[C@H]3C[C@]3(C4)Oc4ccccc4[C@H]3N)cn2)c1Cl` [Example 232]: the IC50 is < 50 nM.
For the compound `CC(C)Sc1cnc(N2CCC3(CC2)Cc2ccccc2[C@H]3N)cn1` [Example 248, (3S)-1′-[5-(propan-2-ylsulfanyl)pyrazin-2-yl]-1,3-dihydrospiro[indene-2,4′-piperidin]-3-amine], the half-inhibitory concentration (IC50) is < 50 nM.
With `N[C@@H]1c2ccccc2CC12CCN(c1ccc(SCC3CC3)nc1)CC2` [Example 272, (S)-1′-(6-((cyclopropylmethyl)thio)pyridin-3-yl)-1,3-dihydrospiro[indene-2,4′-piperidin]-1-amine formate] the figure was < 50 nM.
To `Cc1cnc2sc(N3CCC4(CC3)Cc3ccccc3[C@H]4N)nn12` [Example 293, (S)-1′-(5-methylimidazo[2,1-b][1,3,4]thiadiazol-2-yl)-1,3-dihydrospiro[indene-2,4′-piperidin]-1-amine] belongs < 50 nM.
